According to ChEMBL document CHEMBL5550160, “Leveraging a rationally designed veliparib-based anilide eliciting anti-leukemic effects for the design of pH-responsive polymer nanoformulation” (Eur J Med Chem, 2024):
Calls of active or inactive are those of the source. The calls are words filed in the database; no cut-off is given here.

Experiments:
Histone deacetylase 1 [1] = biological target: T1, Histone deacetylase 1 (Homo sapiens, UniProt Q13547); experiment: Inhibition of HDAC1 (unknown origin) using p53 residues 379 to 382 [RHKK(Ac)] as fluorogenic substrate assessed as residual activity at 1.52 x 10^-9M (reference value: 98.06%); conditions: dose 1.52 10^-9M
Histone deacetylase 2 = Histone deacetylase 2 (Homo sapiens, UniProt Q92769); experiment: Inhibition of HDAC2 (unknown origin) assessed as residual activity at 1.1 x 10^-6M (reference value: 99.81%); conditions: dose 1.1 10^-6M
[2] = biological target: T2, Histone deacetylase 8 (Homo sapiens) (UniProt Q9BY41); experiment: Inhibition of HDAC8 (unknown origin) assessed as residual activity at 3.70 x 10^-7M (reference value: 100%); conditions: dose 3.7 10^-7M
T2 sequence (whole entry): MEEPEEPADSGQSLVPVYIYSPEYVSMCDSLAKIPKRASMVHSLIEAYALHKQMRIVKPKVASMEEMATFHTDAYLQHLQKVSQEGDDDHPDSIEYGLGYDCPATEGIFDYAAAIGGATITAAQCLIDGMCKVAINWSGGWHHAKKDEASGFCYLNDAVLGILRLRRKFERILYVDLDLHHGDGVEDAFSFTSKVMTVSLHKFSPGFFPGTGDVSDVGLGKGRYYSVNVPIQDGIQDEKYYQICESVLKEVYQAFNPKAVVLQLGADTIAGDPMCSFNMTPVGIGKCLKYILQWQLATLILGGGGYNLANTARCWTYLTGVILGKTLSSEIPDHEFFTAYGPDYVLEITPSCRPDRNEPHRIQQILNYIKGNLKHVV

Histone deacetylase 1 [3] = biological target: T1, Histone deacetylase 1; experiment: Inhibition of HDAC1 (unknown origin) using p53 residues 379 to 382 [RHKK(Ac)] as fluorogenic substrate assessed as residual activity at 5.08 x 10^-10M (reference value: 98.06%); conditions: dose 5.08 10^-10M
Histone deacetylase 1 [4] = biological target: T1, Histone deacetylase 1; experiment: Inhibition of HDAC1 (unknown origin) using p53 residues 379 to 382 [RHKK(Ac)] as fluorogenic substrate assessed as residual activity at 1.37 x 10^-8M (reference value: 98.06%); conditions: dose 1.37 10^-8M
HL-60 [5] = experiment: Downregulation of HDAC3 protein expression in human HL-60 cells by Western blot analysis; format: functional, cell-based; conditions: dose 0.2-5 µM
[6] = biological target: T2, Histone deacetylase 8 (Homo sapiens); experiment: Inhibition of HDAC8 (unknown origin) assessed as residual activity at 1.37 x 10^-8M (reference value: 100%); conditions: dose 1.37 10^-8M
Histone deacetylase 3 = Histone deacetylase 3 (Homo sapiens, UniProt O15379); experiment: Inhibition of HDAC3 (unknown origin) using p53 residues 379 to 382 [RHKK(Ac)] as fluorogenic substrate assessed as residual activity at 1.23 x 10^-7M (reference value: 103.08%); conditions: dose 1.23 10^-7M
[7] = biological target: Histone deacetylase 9 (Homo sapiens) (UniProt Q9UKV0); experiment: Inhibition of HDAC9 (unknown origin) assessed as residual activity at 3.70 x 10^-7M (reference value: 97.55%); conditions: dose 3.7 10^-7M
HL-60 [8] = experiment: Downregulation of PAR protein expression in human HL-60 cells at 0.5 to 1 times IC50 measured after 24 hrs by Western blot analysis; format: functional, cell-based
HL-60 [9] = experiment: Downregulation of PARP-1 protein expression in human HL-60 cells by Western blot analysis; format: functional, cell-based
[10] = biological target: T3, Polyamine deacetylase HDAC10 (Homo sapiens) (UniProt Q969S8); experiment: Inhibition of HDAC10 (unknown origin) assessed as residual activity at 3.70 x 10^-7M (reference value: 101.54%); conditions: dose 3.7 10^-7M
T3 sequence (whole entry): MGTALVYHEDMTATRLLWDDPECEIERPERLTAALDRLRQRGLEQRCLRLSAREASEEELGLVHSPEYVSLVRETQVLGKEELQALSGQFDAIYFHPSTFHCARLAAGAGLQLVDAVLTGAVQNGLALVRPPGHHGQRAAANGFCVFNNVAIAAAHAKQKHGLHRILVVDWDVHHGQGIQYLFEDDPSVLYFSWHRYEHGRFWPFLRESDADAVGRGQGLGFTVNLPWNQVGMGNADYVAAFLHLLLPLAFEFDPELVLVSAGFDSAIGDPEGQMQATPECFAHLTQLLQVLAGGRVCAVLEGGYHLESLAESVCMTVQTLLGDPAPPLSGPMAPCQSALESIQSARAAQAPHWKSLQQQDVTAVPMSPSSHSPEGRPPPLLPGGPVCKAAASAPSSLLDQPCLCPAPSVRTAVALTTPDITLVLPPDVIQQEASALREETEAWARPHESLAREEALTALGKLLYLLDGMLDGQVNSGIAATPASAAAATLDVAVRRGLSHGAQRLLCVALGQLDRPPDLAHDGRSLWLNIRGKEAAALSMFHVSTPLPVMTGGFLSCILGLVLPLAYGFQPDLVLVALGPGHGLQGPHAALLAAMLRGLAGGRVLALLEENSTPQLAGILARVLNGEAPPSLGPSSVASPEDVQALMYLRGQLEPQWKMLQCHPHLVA

T1 sequence (Q13547 whole entry, the tested form may be a part): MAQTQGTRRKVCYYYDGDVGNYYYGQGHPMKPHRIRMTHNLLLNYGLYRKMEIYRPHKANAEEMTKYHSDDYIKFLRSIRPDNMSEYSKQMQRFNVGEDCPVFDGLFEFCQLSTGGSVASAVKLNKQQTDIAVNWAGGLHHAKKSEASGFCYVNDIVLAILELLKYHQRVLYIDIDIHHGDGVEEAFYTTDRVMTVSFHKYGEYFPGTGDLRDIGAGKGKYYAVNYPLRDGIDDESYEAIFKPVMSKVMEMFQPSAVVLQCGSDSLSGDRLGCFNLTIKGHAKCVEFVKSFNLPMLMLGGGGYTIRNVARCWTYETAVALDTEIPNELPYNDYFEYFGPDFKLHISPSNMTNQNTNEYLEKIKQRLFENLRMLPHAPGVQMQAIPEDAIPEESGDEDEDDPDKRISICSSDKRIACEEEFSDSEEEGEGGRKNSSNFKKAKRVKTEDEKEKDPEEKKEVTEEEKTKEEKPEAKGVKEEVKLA
Histone deacetylase 3, sequence (O15379 whole entry, the tested form may be a part): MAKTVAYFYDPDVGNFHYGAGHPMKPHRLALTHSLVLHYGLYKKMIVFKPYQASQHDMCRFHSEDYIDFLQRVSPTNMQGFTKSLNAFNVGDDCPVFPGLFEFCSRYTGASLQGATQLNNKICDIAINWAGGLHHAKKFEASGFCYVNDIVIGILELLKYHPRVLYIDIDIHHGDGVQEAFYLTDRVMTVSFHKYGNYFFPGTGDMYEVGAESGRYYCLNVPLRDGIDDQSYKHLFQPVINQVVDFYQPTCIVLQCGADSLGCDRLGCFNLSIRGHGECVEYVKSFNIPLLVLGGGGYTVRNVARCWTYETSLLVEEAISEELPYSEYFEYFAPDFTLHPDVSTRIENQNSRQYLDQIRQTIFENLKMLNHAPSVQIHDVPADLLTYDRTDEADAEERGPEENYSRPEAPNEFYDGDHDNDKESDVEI
Histone deacetylase 2, sequence (Q92769 whole entry): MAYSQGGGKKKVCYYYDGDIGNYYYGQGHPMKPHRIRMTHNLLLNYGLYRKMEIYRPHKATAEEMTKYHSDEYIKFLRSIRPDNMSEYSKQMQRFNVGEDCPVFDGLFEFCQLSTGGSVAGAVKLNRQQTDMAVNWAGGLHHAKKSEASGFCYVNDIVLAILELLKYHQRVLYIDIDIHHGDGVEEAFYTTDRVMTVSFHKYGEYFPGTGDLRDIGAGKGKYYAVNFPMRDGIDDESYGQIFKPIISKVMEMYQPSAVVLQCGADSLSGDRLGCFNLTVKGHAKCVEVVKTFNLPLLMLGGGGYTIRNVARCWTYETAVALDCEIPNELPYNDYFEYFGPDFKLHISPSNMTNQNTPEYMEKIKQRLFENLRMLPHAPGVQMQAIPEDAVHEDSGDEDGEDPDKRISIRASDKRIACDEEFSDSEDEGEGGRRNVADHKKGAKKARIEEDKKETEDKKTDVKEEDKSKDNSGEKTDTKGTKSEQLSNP
Histone deacetylase 9 (Homo sapiens), sequence (Q9UKV0 whole entry): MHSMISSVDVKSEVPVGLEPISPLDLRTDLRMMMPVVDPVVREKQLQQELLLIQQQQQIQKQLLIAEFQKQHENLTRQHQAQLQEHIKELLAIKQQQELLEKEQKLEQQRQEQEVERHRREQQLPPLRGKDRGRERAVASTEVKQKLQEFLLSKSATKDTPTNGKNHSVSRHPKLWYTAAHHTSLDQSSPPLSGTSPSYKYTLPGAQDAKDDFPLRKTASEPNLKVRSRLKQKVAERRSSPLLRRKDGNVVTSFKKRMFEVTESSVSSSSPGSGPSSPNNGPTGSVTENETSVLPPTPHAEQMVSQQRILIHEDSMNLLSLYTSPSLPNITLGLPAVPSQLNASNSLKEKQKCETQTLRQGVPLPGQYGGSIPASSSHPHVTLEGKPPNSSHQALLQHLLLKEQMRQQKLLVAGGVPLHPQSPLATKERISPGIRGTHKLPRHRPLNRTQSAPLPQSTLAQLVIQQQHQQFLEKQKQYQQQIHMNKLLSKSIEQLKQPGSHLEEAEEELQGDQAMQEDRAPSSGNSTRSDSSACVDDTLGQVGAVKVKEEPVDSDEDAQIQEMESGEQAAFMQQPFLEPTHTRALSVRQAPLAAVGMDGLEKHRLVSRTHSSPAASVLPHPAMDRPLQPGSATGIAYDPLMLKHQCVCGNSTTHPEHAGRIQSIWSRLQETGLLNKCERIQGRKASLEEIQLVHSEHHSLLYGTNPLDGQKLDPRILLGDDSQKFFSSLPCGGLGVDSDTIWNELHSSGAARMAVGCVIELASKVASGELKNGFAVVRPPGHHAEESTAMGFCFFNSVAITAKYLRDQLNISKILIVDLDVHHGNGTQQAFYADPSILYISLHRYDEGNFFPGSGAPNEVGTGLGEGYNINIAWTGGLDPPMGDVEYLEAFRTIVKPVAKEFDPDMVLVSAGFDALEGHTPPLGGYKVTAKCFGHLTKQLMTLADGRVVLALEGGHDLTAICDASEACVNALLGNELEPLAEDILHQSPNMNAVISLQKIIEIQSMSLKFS

## NC(=O)c1cccc2[nH]c(-c3ccc(NCc4ccc(C(=O)Nc5ccccc5N)cc4)cc3)nc12
Histone deacetylase 1 [1]
  Activity: 95.5%
Histone deacetylase 2
  Activity: 12.8%
[2]
  Activity: 99.5%
Histone deacetylase 1 [3]
  Activity: 93.5%
Histone deacetylase 1 [4]
  Activity: 73.9%
HL-60 [5]
  Activity: Dose-Dependent Effect
[6]
  Activity: 104%
Histone deacetylase 3
  Activity: 84.1%
[7]
  Activity: 92.6%
HL-60 [8]
  Activity: Dose-Dependent Effect
HL-60 [9]
  Activity: Active
[10]
  Activity: 94.8%
